System: MV-4-11 cells
Experiment: Gene expression microarray analysis (Affymetrix PrimeView) and GSEA
Assay type: cell-based, human
Design: RFU PODN (11730768_x_at) / Fold change /veh PODN (11730768_x_at) / RFU LINC00158 (11744669_a_at) / Fold change /veh LINC00158 (11744669_a_at) / RFU DUSP10 (11751237_a_at) / Fold change /veh DUSP10 (11751237_a_at) / RFU ID3 (11757404_x_at) / Fold change /veh ID3 (11757404_x_at) / RFU PLEKHG5 (11737974_s_at) / Fold change /veh PLEKHG5 (11737974_s_at) / RFU LRRC4B (11730491_at) / Fold change /veh LRRC4B (11730491_at) / RFU GIMAP4 (11747438_a_at) / Fold change /veh GIMAP4 (11747438_a_at) / RFU KRT8 (11758183_x_at) / Fold change /veh KRT8 (11758183_x_at) / RFU CNN1 (11734310_a_at) / Fold change /veh CNN1 (11734310_a_at) / RFU VPS37D (11726825_at) / Fold change /veh VPS37D (11726825_at) / RFU C10orf10 (11716522_x_at) / Fold change /veh C10orf10 (11716522_x_at) / RFU KIR2DL2 /// KIR2DL4 /// KIR2DL5A /// KIR2DL5B /// KIR2DS1 /// KIR2DS2 /// KIR2DS3 /// KIR2DS4 /// KIR3DL3 /// KIR3DL3 /// KIR3DS1 (11738374_at) / Fold change /veh KIR2DL2 /// KIR2DL4 /// KIR2DL5A /// KIR2DL5B /// KIR2DS1 /// KIR2DS2 /// KIR2DS3 /// KIR2DS4 /// KIR3DL3 /// KIR3DL3 /// KIR3DS1 (11738374_at) / RFU C1QL1 (11718748_at) / Fold change /veh C1QL1 (11718748_at) / RFU TMPRSS4 (11747572_a_at) / Fold change /veh TMPRSS4 (11747572_a_at) / RFU HAMP (11756126_x_at) / Fold change /veh HAMP (11756126_x_at) / RFU RNFT2 (11725882_a_at) / Fold change /veh RNFT2 (11725882_a_at) / RFU NR4A2 (11747474_a_at) / Fold change /veh NR4A2 (11747474_a_at) / RFU ABCC12 (11746883_a_at) / Fold change /veh ABCC12 (11746883_a_at) / RFU TMEM136 (11760407_x_at) / Fold change /veh TMEM136 (11760407_x_at) / RFU CLDN22 /// WWC2 (11732394_at) / Fold change /veh CLDN22 /// WWC2 (11732394_at) / RFU HLA-DPB1 (11760878_x_at) / Fold change /veh HLA-DPB1 (11760878_x_at) / RFU SPINT1 (11716480_a_at) / Fold change /veh SPINT1 (11716480_a_at) / RFU GAP43 (11754022_s_at) / Fold change /veh GAP43 (11754022_s_at) / RFU A4GNT (11735810_at) / Fold change /veh A4GNT (11735810_at) / RFU PRB3 (11715151_x_at) / Fold change /veh PRB3 (11715151_x_at) / RFU TUBB4B (11761932_at) / Fold change /veh TUBB4B (11761932_at) / RFU CAPN14 (11732068_a_at) / Fold change /veh CAPN14 (11732068_a_at) / RFU TMCC2 (11721928_a_at) / Fold change /veh TMCC2 (11721928_a_at) / RFU IRGQ (11745062_a_at) / Fold change /veh IRGQ (11745062_a_at) / RFU FAM174B (11720279_a_at) / Fold change /veh FAM174B (11720279_a_at) / RFU TMPRSS4 (11748680_a_at) / Fold change /veh TMPRSS4 (11748680_a_at) / RFU FAM212B (11763350_a_at) / Fold change /veh FAM212B (11763350_a_at) / RFU PLEKHG5 (11743358_a_at) / Fold change /veh PLEKHG5 (11743358_a_at) / RFU ZSCAN30 (11745921_a_at) / Fold change /veh ZSCAN30 (11745921_a_at) / RFU CMKLR1 (11741424_a_at) / Fold change /veh CMKLR1 (11741424_a_at) / RFU LOC101060620 /// MAPK8IP1 (11723275_at) / Fold change /veh LOC101060620 /// MAPK8IP1 (11723275_at) / RFU SPTSSB (11747773_x_at) / Fold change /veh SPTSSB (11747773_x_at) / RFU PRSS12 (11739890_at) / Fold change /veh PRSS12 (11739890_at) / RFU BIN1 (11741810_x_at) / Fold change /veh BIN1 (11741810_x_at) / RFU WNT11 (11732464_a_at) / Fold change /veh WNT11 (11732464_a_at) / RFU C10orf10 (11716521_a_at) / Fold change /veh C10orf10 (11716521_a_at) / RFU C5orf56 (11738089_at) / Fold change /veh C5orf56 (11738089_at) / RFU CYB561 (11721691_x_at) / Fold change /veh CYB561 (11721691_x_at) / RFU ANKRD19P (11752326_a_at) / Fold change /veh ANKRD19P (11752326_a_at) / RFU OR2T12 /// OR2T33 /// OR2T8 (11738714_s_at) / Fold change /veh OR2T12 /// OR2T33 /// OR2T8 (11738714_s_at) / RFU VCAN (11748164_a_at) / Fold change /veh VCAN (11748164_a_at) / RFU JSRP1 (11732532_at) / Fold change /veh JSRP1 (11732532_at) / RFU KRTAP10-11 (11738290_x_at) / Fold change /veh KRTAP10-11 (11738290_x_at) / RFU MYO3A (11730013_a_at) / Fold change /veh MYO3A (11730013_a_at) / RFU EBF3 (11725865_a_at) / Fold change /veh EBF3 (11725865_a_at) / RFU CAMK2N1 (11719241_x_at) / Fold change /veh CAMK2N1 (11719241_x_at) / RFU C5orf56 (11738088_a_at) / Fold change /veh C5orf56 (11738088_a_at) / RFU OLFML3 (11715873_a_at) / Fold change /veh OLFML3 (11715873_a_at) / RFU LOC100653217 /// NTM (11731650_a_at) / Fold change /veh LOC100653217 /// NTM (11731650_a_at) / RFU MAPK11 (11762145_a_at) / Fold change /veh MAPK11 (11762145_a_at) / RFU FIZ1 (11724087_x_at) / Fold change /veh FIZ1 (11724087_x_at) / RFU OASL (11726364_x_at) / Fold change /veh OASL (11726364_x_at) / RFU SOX15 (11748057_x_at) / Fold change /veh SOX15 (11748057_x_at) / RFU CD79A (11719716_a_at) / Fold change /veh CD79A (11719716_a_at) / RFU HIST1H1D (11736915_at) / Fold change /veh HIST1H1D (11736915_at) / RFU CASKIN2 (11723855_a_at) / Fold change /veh CASKIN2 (11723855_a_at) / RFU LOC730098 (11760151_x_at) / Fold change /veh LOC730098 (11760151_x_at) / RFU OR4N2 (11742367_at) / Fold change /veh OR4N2 (11742367_at) / RFU PRRT2 (11749266_a_at) / Fold change /veh PRRT2 (11749266_a_at) / RFU SNX32 (11753110_a_at) / Fold change /veh SNX32 (11753110_a_at) / RFU CDHR5 (11726645_a_at) / Fold change /veh CDHR5 (11726645_a_at) / RFU RCAN1 (11760418_a_at) / Fold change /veh RCAN1 (11760418_a_at) / RFU FAM167A (11723789_a_at) / Fold change /veh FAM167A (11723789_a_at) / RFU FAM26E (11764081_at) / Fold change /veh FAM26E (11764081_at) / RFU ISYNA1 (11749810_s_at) / Fold change /veh ISYNA1 (11749810_s_at) / RFU ACY1 (11761880_at) / Fold change /veh ACY1 (11761880_at) / RFU 11764098_at / Fold change /veh 11764098_at / RFU SAMD14 (11745864_x_at) / Fold change /veh SAMD14 (11745864_x_at) / RFU NPB (11741838_a_at) / Fold change /veh NPB (11741838_a_at) / RFU TMPRSS6 (11731388_a_at) / Fold change /veh TMPRSS6 (11731388_a_at) / RFU KRTAP10-2 (11738614_at) / Fold change /veh KRTAP10-2 (11738614_at) / RFU ARHGAP8 /// PRR5-ARHGAP8 (11727945_x_at) / Fold change /veh ARHGAP8 /// PRR5-ARHGAP8 (11727945_x_at) / RFU KRTAP5-7 /// NADSYN1 (11734609_at) / Fold change /veh KRTAP5-7 /// NADSYN1 (11734609_at) / RFU RASL12 (11751679_a_at) / Fold change /veh RASL12 (11751679_a_at) / RFU CDKN2B (11736163_a_at) / Fold change /veh CDKN2B (11736163_a_at) / RFU PRF1 (11729649_at) / Fold change /veh PRF1 (11729649_at) / RFU, ZNF638 /// ZNF638-IT1 / Fold change vs veh, ZNF638 /// ZNF638-IT1 / RFU, PANK3 / Fold change vs veh, PANK3 / RFU, SH3YL1 / Fold change vs veh, SH3YL1 / RFU, ZEB2 / Fold change vs veh, ZEB2 / RFU, NRIP1 / Fold change vs veh, NRIP1 / RFU, PTTG1IP / Fold change vs veh, PTTG1IP / RFU, CAPN2 / Fold change vs veh, CAPN2 / RFU, MED14 / Fold change vs veh, MED14 / RFU, SNORA58 / Fold change vs veh, SNORA58 / RFU, C1orf63 / Fold change vs veh, C1orf63 / RFU, LRRFIP1 / Fold change vs veh, LRRFIP1 / RFU, NDUFAF7 / Fold change vs veh, NDUFAF7 / RFU, SLC12A2 / Fold change vs veh, SLC12A2 / RFU, IBTK / Fold change vs veh, IBTK / RFU, ESF1 / Fold change vs veh, ESF1 / Fold change vs veh, TMEM50B / RFU, TAOK1 / Fold change vs veh, TAOK1 / RFU, ACBD3 / Fold change vs veh, ACBD3 / RFU, TMA16 / Fold change vs veh, TMA16 / RFU, RWDD3 / Fold change vs veh, RWDD3 / RFU, BCAT1 / Fold change vs veh, BCAT1 / RFU, EDEM3 / Fold change vs veh, EDEM3 / RFU, TMEM33 / Fold change vs veh, TMEM33 / RFU, WDR75 / Fold change vs veh, WDR75 / RFU, AHCTF1 / Fold change vs veh, AHCTF1 / RFU, TFRC / Fold change vs veh, TFRC / RFU, ZDHHC17 / Fold change vs veh, ZDHHC17 / RFU, NOM1 / Fold change vs veh, NOM1 / RFU, ARL8B / Fold change vs veh, ARL8B / RFU, ZBTB11 / Fold change vs veh, ZBTB11 / RFU, TAMM41 / Fold change vs veh, TAMM41 / RFU, KIAA1704 /// LOC100996395 / Fold change vs veh, KIAA1704 /// LOC100996395 / RFU, ING1 / Fold change vs veh, ING1 / RFU, TRMT61B / Fold change vs veh, TRMT61B / RFU, FUBP3 / Fold change vs veh, FUBP3 / RFU, TP53 / Fold change vs veh, TP53 / RFU, TNKS2 / Fold change vs veh, TNKS2 / RFU, ZFP14 / Fold change vs veh, ZFP14 / RFU, ACTR2 / Fold change vs veh, ACTR2 / RFU, PPP3R1 / Fold change vs veh, PPP3R1 / RFU, PIK3R1 / Fold change vs veh, PIK3R1 / RFU, HNRNPA1 / Fold change vs veh, HNRNPA1 / RFU, RNF170 / Fold change vs veh, RNF170 / RFU, ZNF28 / Fold change vs veh, ZNF28 / RFU, RNGTT / Fold change vs veh, RNGTT / RFU, OGT / Fold change vs veh, OGT / RFU, BRD1 / Fold change vs veh, BRD1 / RFU, MARS / Fold change vs veh, MARS / RFU, ZNF655 / Fold change vs veh, ZNF655 / RFU, FAHD1 / Fold change vs veh, FAHD1 / RFU, BDP1 / Fold change vs veh, BDP1 / RFU, LRRCC1 / Fold change vs veh, LRRCC1 / RFU, ARID1A / Fold change vs veh, ARID1A / RFU, ZNF146 / Fold change vs veh, ZNF146 / RFU, ZNF330 / Fold change vs veh, ZNF330 / RFU, GPN3 / Fold change vs veh, GPN3 / RFU, C9orf123 / Fold change vs veh, C9orf123 / RFU, N4BP2L2 / Fold change vs veh, N4BP2L2 / RFU, ARFIP1 / Fold change vs veh, ARFIP1 / RFU, FAM179B / Fold change vs veh, FAM179B / RFU, BCL10 / Fold change vs veh, BCL10 / RFU, UHRF1BP1L / Fold change vs veh, UHRF1BP1L / RFU, BET1 / Fold change vs veh, BET1 / RFU, CNOT2 / Fold change vs veh, CNOT2 / RFU, ZNF268 / Fold change vs veh, ZNF268 / Fold change vs veh, ZNF507 / RFU, DGCR2 / Fold change vs veh, DGCR2 / RFU, WDSUB1 / Fold change vs veh, WDSUB1 / Fold change vs veh, HSP90B1 /// MIR3652 / RFU, ADSS / Fold change vs veh, ADSS / RFU, GK / Fold change vs veh, GK / RFU, ZNF148 / Fold change vs veh, ZNF148 / RFU, TAF9 / Fold change vs veh, TAF9 / RFU, SLC1A5 / Fold change vs veh, SLC1A5 / RFU, SLMO2 / Fold change vs veh, SLMO2 / RFU, ABCC4 / Fold change vs veh, ABCC4 / RFU, LOC101060439 /// RAP1B / Fold change vs veh, LOC101060439 /// RAP1B / RFU, RFX7 / Fold change vs veh, RFX7 / RFU, GTPBP10 / Fold change vs veh, GTPBP10 / RFU, CNEP1R1 / Fold change vs veh, CNEP1R1 / RFU, BIVM-ERCC5 /// ERCC5 / Fold change vs veh, BIVM-ERCC5 /// ERCC5 / RFU, ILF3 / Fold change vs veh, ILF3 / RFU 11762660_at / Fold change /veh 11762660_at / RFU VCAN (11757783_s_at) / Fold change /veh VCAN (11757783_s_at) / RFU DDX43 (11728927_at) / Fold change /veh DDX43 (11728927_at) / RFU KRT8 (11758188_x_at) / Fold change /veh KRT8 (11758188_x_at) / RFU NKD1 (11759106_at) / Fold change /veh NKD1 (11759106_at) / RFU SRD5A1 (11742802_a_at) / Fold change /veh SRD5A1 (11742802_a_at) / RFU TPSAB1 /// TPSB2 (11721975_s_at) / Fold change /veh TPSAB1 /// TPSB2 (11721975_s_at) / RFU GSTM3 (11746129_a_at) / Fold change /veh GSTM3 (11746129_a_at) / RFU IL23R (11737362_x_at) / Fold change /veh IL23R (11737362_x_at) / RFU TMEM51 (11727254_a_at) / Fold change /veh TMEM51 (11727254_a_at) / RFU PIWIL2 (11732686_x_at) / Fold change /veh PIWIL2 (11732686_x_at) / RFU ORM1 (11744905_x_at) / Fold change /veh ORM1 (11744905_x_at) / RFU CCDC152 (11743942_at) / Fold change /veh CCDC152 (11743942_at) / RFU ECM1 (11717891_a_at) / Fold change /veh ECM1 (11717891_a_at) / RFU IL23R (11748794_a_at) / Fold change /veh IL23R (11748794_a_at) / RFU TNFAIP8L3 (11732012_x_at) / Fold change /veh TNFAIP8L3 (11732012_x_at) / RFU MBOAT4 (11741988_at) / Fold change /veh MBOAT4 (11741988_at) / RFU 11764193_at / Fold change /veh 11764193_at / RFU TMEM53 (11763286_at) / Fold change /veh TMEM53 (11763286_at) / RFU MAGEB2 (11727129_at) / Fold change /veh MAGEB2 (11727129_at) / RFU TMEM200A (11744735_a_at) / Fold change /veh TMEM200A (11744735_a_at) / RFU CCDC152 (11751479_a_at) / Fold change /veh CCDC152 (11751479_a_at) / RFU FAM211A (11726209_a_at) / Fold change /veh FAM211A (11726209_a_at) / RFU RGS16 (11746705_a_at) / Fold change /veh RGS16 (11746705_a_at) / RFU VCAN (11755009_s_at) / Fold change /veh VCAN (11755009_s_at) / RFU RHOB (11743442_s_at) / Fold change /veh RHOB (11743442_s_at) / RFU RGS16 (11720943_a_at) / Fold change /veh RGS16 (11720943_a_at) / RFU RGS16 (11720944_at) / Fold change /veh RGS16 (11720944_at) / RFU, VPS4B / Fold change vs veh, VPS4B / RFU, CREB1 / Fold change vs veh, CREB1 / RFU, DNAJC13 / Fold change vs veh, DNAJC13 / RFU, GNAQ / Fold change vs veh, GNAQ / RFU, CDK5R1 / Fold change vs veh, CDK5R1 / RFU, ZRANB3 / Fold change vs veh, ZRANB3 / RFU, CUL4A / Fold change vs veh, CUL4A / RFU, CCNY / Fold change vs veh, CCNY / RFU, UFL1 / Fold change vs veh, UFL1 / RFU, COG3 / Fold change vs veh, COG3 / RFU, DIAPH2 / Fold change vs veh, DIAPH2 / RFU, SKA2 / Fold change vs veh, SKA2 / RFU, AFF3 / Fold change vs veh, AFF3 / RFU, LMF1 / Fold change vs veh, LMF1 / RFU, IPO11 / Fold change vs veh, IPO11 / RFU, DFFB / Fold change vs veh, DFFB / RFU, FOXP1 / Fold change vs veh, FOXP1 / RFU, CARD8 / Fold change vs veh, CARD8 / RFU, STRN3 / Fold change vs veh, STRN3 / RFU, ADK / Fold change vs veh, ADK / RFU, RASSF2 / Fold change vs veh, RASSF2 / RFU, WIPF1 / Fold change vs veh, WIPF1 / RFU, LARP1B / Fold change vs veh, LARP1B / RFU, RASA1 / Fold change vs veh, RASA1 / RFU, RB1 / Fold change vs veh, RB1 / RFU, PPFIA1 / Fold change vs veh, PPFIA1 / RFU, MAT2A / Fold change vs veh, MAT2A / RFU, CCT5 / Fold change vs veh, CCT5 / RFU, WDR92 / Fold change vs veh, WDR92 / RFU, CUX1 / Fold change vs veh, CUX1 / RFU, TTC7A / Fold change vs veh, TTC7A / RFU, TMEM135 / Fold change vs veh, TMEM135 / RFU, DEPTOR / Fold change vs veh, DEPTOR / RFU, CPM / Fold change vs veh, CPM / RFU, DNAJB6 / Fold change vs veh, DNAJB6 / RFU, CACNA2D3 / Fold change vs veh, CACNA2D3 / RFU, DTX4 / Fold change vs veh, DTX4 / RFU, TFCP2 / Fold change vs veh, TFCP2 / RFU, GMCL1 /// GMCL1P1 / Fold change vs veh, GMCL1 /// GMCL1P1 / RFU, AEBP2 / Fold change vs veh, AEBP2 / RFU, SNHG1 /// SNORD22 /// SNORD25 /// SNORD26 /// SNORD27 /// SNORD28 /// SNORD29 /// SNORD31 / Fold change vs veh, SNHG1 /// SNORD22 /// SNORD25 /// SNORD26 /// SNORD27 /// SNORD28 /// SNORD29 /// SNORD31 / Fold change (Aza/veh), C12orf56 (ProbeSet 11735607_a_at) / Fold change (ACY-1035/veh), C12orf56 (ProbeSet 11735607_a_at) / Fold change (Aza/veh), FGFR1OP (ProbeSet 11751329_s_at) / Fold change (ACY-1035/veh), FGFR1OP (ProbeSet 11751329_s_at) / Fold change (Aza/veh), VPS36 (ProbeSet 11739960_a_at) / Fold change (ACY-1035/veh), VPS36 (ProbeSet 11739960_a_at) / RFU SYPL1 (11715823_x_at) / Fold change /veh SYPL1 (11715823_x_at) / RFU IGFBP7 (11715501_s_at) / Fold change /veh IGFBP7 (11715501_s_at) / RFU REEP3 (11722064_at) / Fold change /veh REEP3 (11722064_at) / RFU IGLL1 (11728026_x_at) / Fold change /veh IGLL1 (11728026_x_at): dose or concentration left out as unconfirmed
Conditions: ProbeSet 11740781_a_at; LIST B

Nc1ncn([C@@H]2O[C@H](CO)[C@@H](O)[C@H]2O)c(=O)n1 [azacitidine]
Fold change vs veh, ILF3: 0.96

Source: publication PMC5218480 (PLoS ONE, 2017)
